From US6762181B1, “Aminomethylpyrrolidine derivatives having aromatic substituents” (Daiichi Pharmaceutical Co., Ltd., priority 1999, dated 2004)
In brackets after ≈: the same amount, converted by molar mass.

Experiments:
Test in all cases: Antibacterial activity (MIC), Japan Society of Chemotherapy standard method
Type in all cases: cell-based
Str. pneumoniae J24 = settings: Streptococcus pneumoniae, J24, Str. pneumoniae J24; read-out: MIC
Method: (§1) Antibacterial activities of the compounds of the invention were measured in accordance with the standard method specified by the Japan Society of Chemotherapy, with the results shown in the following table as MIC values (μg/ml). In this connection, MIC values of levofloxacin (LVFX), ciprofloxacin (CPFX) and 5-amino-7-[3-(R)-[1-(S)-aminoethyl]pyrrolidin-1-yl]-6-fluoro-1-[2-(S)-fluoro-1-(R)-cyclopropyl]-8-methyl-1,4-dihydro-4-oxoquinoline-3-carboxylic acid (control drug 1) described in WO 9623782 are also shown for the sake of comparison with the MIC values of the compounds of the invention.

E. faecalis ATCC 19433 = settings: Enterococcus faecalis, ATCC19433, E. faecalis ATCC 19433; read-out: MIC
Method: as §1

S. aureus 870307 = settings: Staphylococcus aureus, 870307, S. aureus 870307; read-out: MIC
Method: as §1

Str. pyrogenes G-36 = settings: read-out: MIC
Method: as §1

X. maltophilia IID 1275 = settings: Stenotrophomonas maltophilia, IID1275, X. maltophilia IID 1275; read-out: MIC
Method: as §1

S. epidermidis 56500 = settings: Staphylococcus epidermidis, read-out: MIC
Method: as §1

K. pneumoniae TYPE 1 = settings: Klebsiella pneumoniae, TYPE1, K. pneumoniae TYPE 1; read-out: MIC
Method: as §1

E. coli NIHJ = settings: Escherichia coli, read-out: MIC
Method: as §1

S. flexneri 2A 5503 = settings: Shigella flexneri, 2A5503, S. flexneri 2A 5503; read-out: MIC
Method: as §1

S. aureus FDA 209P = settings: Staphylococcus aureus, FDA209P, read-out: MIC
Method: as §1

Ps. aeruginosa 32104 = settings: Pseudomonas aeruginosa, 32104, Ps. aeruginosa 32104; read-out: MIC
Method: as §1

Ser. marcescens 10100 = settings: Serratia marcescens, 10100, Ser. marcescens 10100; read-out: MIC
Method: as §1

Pr. Vulgaris O8601 = settings: Proteus vulgaris, read-out: MIC
Method: as §1

Ps. aeruginosa 32121 = settings: Pseudomonas aeruginosa, 32121, Ps. aeruginosa 32121; read-out: MIC
Method: as §1

Cc1c(N2CC[C@@H](C(N)c3cccnc3)C2)c(F)c(N)c2c(=O)c(C(=O)O)cn([C@@H]3C[C@@H]3F)c12 (stereo partly drawn) [Example 20, 5-Amino-7-(3-(R)-[1-amino-1-(3-pyridyl)methyl]-1-pyrrolidinyl)-6-fluoro-1-[(1R,2S)-2-fluorocyclopropyl]-1,4-dihydro-8-methyl-4-oxoquinoline-3-carboxylic acid] was tested. Which MIC (Str. pneumoniae J24) did it give?
The MIC was at most 0.003 µg/mL.

And the MIC (E. faecalis ATCC 19433)?
The MIC was 0.025 µg/mL (≈ 0.0532 µM).

What about the MIC (S. aureus 870307) of the same compound?
Its MIC is 0.05 µg/mL (≈ 0.106 µM).

What about the MIC (Str. pyrogenes G-36) of the same compound?
Its MIC is at most 0.003 µg/mL.

What about the MIC (X. maltophilia IID 1275) of the same compound?
The MIC was 0.2 µg/mL (≈ 0.426 µM).

And the MIC (S. epidermidis 56500)?
Its MIC is at most 0.003 µg/mL.

And the MIC (K. pneumoniae TYPE 1)?
The MIC was 0.05 µg/mL (≈ 0.106 µM).

And the MIC (E. coli NIHJ)?
The MIC was 0.006 µg/mL (≈ 0.0128 µM).

What about the MIC (S. flexneri 2A 5503) of the same compound?
Its MIC is 0.006 µg/mL (≈ 0.0128 µM).

And the MIC (S. aureus FDA 209P)?
Its MIC is at most 0.003 µg/mL.

And the MIC (Ps. aeruginosa 32104)?
The MIC was 0.2 µg/mL (≈ 0.426 µM).

And the MIC (Ser. marcescens 10100)?
Its MIC is 0.1 µg/mL (≈ 0.213 µM).

What about the MIC (Pr. Vulgaris O8601) of the same compound?
Its MIC is 0.025 µg/mL (≈ 0.0532 µM).

And the MIC (Ps. aeruginosa 32121)?
Its MIC is 0.05 µg/mL (≈ 0.106 µM).

C[C@H]1COc2c(N3CCN(C)CC3)c(F)cc3c(=O)c(C(=O)O)cn1c23 [LVFX, levofloxacin, reference compound] was tested. Which MIC (Str. pneumoniae J24) did it give?
Its MIC is 0.78 µg/mL (≈ 2.16 µM).

What about the MIC (E. faecalis ATCC 19433) of the same compound?
The MIC was 0.78 µg/mL (≈ 2.16 µM).

And the MIC (S. aureus 870307)?
The MIC was over 6.25 µg/mL.

And the MIC (Str. pyrogenes G-36)?
The MIC was 0.2 µg/mL (≈ 0.553 µM).

And the MIC (X. maltophilia IID 1275)?
Its MIC is 0.39 µg/mL (≈ 1.08 µM).

And the MIC (S. epidermidis 56500)?
Its MIC is 0.39 µg/mL (≈ 1.08 µM).

And the MIC (K. pneumoniae TYPE 1)?
Its MIC is 0.1 µg/mL (≈ 0.277 µM).

What about the MIC (E. coli NIHJ) of the same compound?
The MIC was 0.013 µg/mL (≈ 0.036 µM).

And the MIC (S. flexneri 2A 5503)?
Its MIC is 0.025 µg/mL (≈ 0.0692 µM).

What about the MIC (S. aureus FDA 209P) of the same compound?
Its MIC is 0.2 µg/mL (≈ 0.553 µM).

What about the MIC (Ps. aeruginosa 32104) of the same compound?
Its MIC is 0.2 µg/mL (≈ 0.553 µM).

And the MIC (Ser. marcescens 10100)?
Its MIC is 0.1 µg/mL (≈ 0.277 µM).

What about the MIC (Pr. Vulgaris O8601) of the same compound?
Its MIC is 0.13 µg/mL (≈ 0.36 µM).

And the MIC (Ps. aeruginosa 32121)?
Its MIC is 0.1 µg/mL (≈ 0.277 µM).
